Assay results published in US20060069132A1, “Azolecarboxamide herbicides” (priority 2004, published 2006).

Assays:
morningglory = experiment: Test C pre-/postemergence herbicide test; format: in vivo, Ipomoea coccinea; design: key to Plant response rating, Morningglory: 0 = no effect, 100 = complete control; settings: preemergence
Summary of the method: (§1)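 Visual ratings on a 0–100 scale (100 = complete control) made versus untreated controls after 12 to 14 greenhouse days. Test chemicals, formulated in surfactant-containing non-phytotoxic solvent, applied preemergence to planted seeds or postemergence to 1- to 4-leaf plants (2 to 18 cm).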

bermudagrass = experiment: Test C pre-/postemergence herbicide test; format: in vivo, Cynodon dactylon; settings: for Plant response rating, Bermudagrass: preemergence; for Bermudagrass plant response rating: Preemergence, 500 g ai/ha
Summary of the method: as §1

barnyardgrass = experiment: Test C flooded paddy test; format: in vivo, Echinochloa crus-galli; settings: for Plant response rating, Barnyardgrass: 500 g ai/ha, visual rating after 12 to 14 days
Summary of the method: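 After a postemergence application at 1 to 4 leaves (plants 2–18 cm high), or at 2 leaves for barnyardgrass in flooded paddy, plants stayed in the greenhouse for 12 to 14 days. Damage was then judged visually relative to control plants, with 100 indicating complete control.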

goosegrass = experiment: Test C pre-/postemergence herbicide test; format: in vivo, Eleusine indica; settings: preemergence
Summary of the method: as §1

woolly cupgrass = experiment: Test C pre-/postemergence herbicide test; format: in vivo, Eriochloa villosa; settings: preemergence
Summary of the method: as §1

cocklebur = experiment: Test C pre-/postemergence herbicide test; format: in vivo, Xanthium strumarium; settings: for Plant response rating, Cocklebur: preemergence; for Cocklebur plant response rating: Preemergence, 500 g ai/ha, scale 0 to 100, 0 no effect, 100 complete control
Summary of the method: as §1

yellow nutsedge = experiment: Test C pre-/postemergence herbicide test; format: in vivo, Cyperus esculentus; settings: preemergence
Summary of the method: as §1

kochia = experiment: Test C pre-/postemergence herbicide test; format: in vivo, Kochia scoparia; settings: preemergence
Summary of the method: as §1

velvetleaf = experiment: Test C pre-/postemergence herbicide test; format: in vivo, Abutilon theophrasti; settings: preemergence
Summary of the method: as §1

giant foxtail = experiment: Test C pre-/postemergence herbicide test; format: in vivo, Setaria faberi; settings: preemergence
Summary of the method: as §1

corn = experiment: Test C pre-/postemergence herbicide test; format: in vivo, Zea mays; settings: preemergence
Summary of the method: as §1

soybean = experiment: Test C pre-/postemergence herbicide test; format: in vivo, Glycine max; settings: preemergence
Summary of the method: as §1

[1] = 125 g ai/ha, scale 0 (no effect) to 100 (complete control), visual, 12 to 14 days
[2] = 500 g ai/ha, scale 0 to 100 (0 no effect, 100 complete control), visual, 12 to 14 days
[3] = 62 g ai/ha, scale 0 to 100, 0 no effect, 100 complete control
[4] = scale 0 to 100, 0 no effect, 100 complete control
[5] = 62 g ai/ha, scale 0 to 100 (0 no effect, 100 complete control)
[6] = 125 g ai/ha, scale 0 to 100 (0 no effect, 100 complete control)
[7] = 250 g ai/ha, scale of 0 to 100, 0 is no effect, 100 is complete control
[8] = scale 0 to 100 (0 no effect, 100 complete control)

CCn1nc(C(C)(C)C)cc1C(=S)Nc1cc(C(=S)N(C)C)ccc1F [Compound 305]
Plant response rating, Morningglory (morningglory; 62 g ai/ha, scale 0 to 100): 0 | Plant response rating, Morningglory (morningglory; [1]): 0 | Plant response rating, Morningglory (morningglory; 250 g ai/ha, scale 0-100): 5 | Plant response rating, Morningglory (morningglory; [2]): 10 | Plant response rating, Bermudagrass (bermudagrass; [3]): 80 | Plant response rating, Bermudagrass (bermudagrass; [1]): 85 | Plant response rating, Bermudagrass (bermudagrass; 250 g ai/ha, scale 0-100): 100 | Bermudagrass plant response rating (bermudagrass; [4]): 100 | Barnyardgrass plant response rating (barnyardgrass; [5]): 70 | Barnyardgrass plant response rating (barnyardgrass; [6]): 85 | Barnyardgrass plant response rating (barnyardgrass; [7]): 95 | Plant response rating, Barnyardgrass (barnyardgrass; [8]): 100 | Plant response rating, Goosegrass (goosegrass; 62 g ai/ha, scale 0 to 100): 80 | Plant response rating, Goosegrass (goosegrass; [1]): 85 | Plant response rating, Goosegrass (goosegrass; 250 g ai/ha, scale 0-100): 95 | Plant response rating, Goosegrass (goosegrass; [2]): 95 | Plant response rating, Cupgrass, Woolly (woolly cupgrass; 62 g ai/ha, scale 0 to 100): 20 | Plant response rating, Cupgrass, Woolly (woolly cupgrass; [1]): 60 | Plant response rating, Cupgrass, Woolly (woolly cupgrass; 250 g ai/ha, scale 0-100): 60 | Plant response rating, Cupgrass, Woolly (woolly cupgrass; [2]): 70 | Plant response rating, Cocklebur (cocklebur; 62 g ai/ha, scale 0 to 100): 10 | Plant response rating, Cocklebur (cocklebur; [1]): 15 | Plant response rating, Cocklebur (cocklebur; 250 g ai/ha, scale 0-100): 65 | Cocklebur plant response rating (cocklebur): 90 | Plant response rating, Nutsedge, Yellow (yellow nutsedge; 62 g ai/ha, scale 0 to 100): 10 | Plant response rating, Nutsedge, Yellow (yellow nutsedge; [1]): 20 | Plant response rating, Nutsedge, Yellow (yellow nutsedge; 250 g ai/ha, scale 0-100): 25 | Plant response rating, Nutsedge, Yellow (yellow nutsedge; [2]): 50 | Plant response rating, Kochia (kochia; 62 g ai/ha, scale 0 to 100): 100 | Plant response rating, Kochia (kochia; [1]): 100 | Plant response rating, Kochia (kochia; 250 g ai/ha, scale 0-100): 100 | Plant response rating, Kochia (kochia; [2]): 100 | Plant response rating, Velvetleaf (velvetleaf; 62 g ai/ha, scale 0 to 100): 40 | Plant response rating, Velvetleaf (velvetleaf; 250 g ai/ha, scale 0-100): 100 | Plant response rating, Velvetleaf (velvetleaf; [2]): 100 | Plant response rating, Foxtail, Giant (giant foxtail; 62 g ai/ha, scale 0 to 100): 35 | Plant response rating, Foxtail, Giant (giant foxtail; [1]): 85 | Plant response rating, Foxtail, Giant (giant foxtail; 250 g ai/ha, scale 0-100): 100 | Plant response rating, Foxtail, Giant (giant foxtail; [2]): 100 | Plant response rating, Corn (corn; 62 g ai/ha, scale 0 to 100): 0 | Plant response rating, Corn (corn; [1]): 40 | Plant response rating, Corn (corn; 250 g ai/ha, scale 0-100): 45 | Plant response rating, Corn (corn; [2]): 45 | Plant response rating, Soybean (soybean; 62 g ai/ha, scale 0 to 100): 0 | Plant response rating, Soybean (soybean; 250 g ai/ha, scale 0-100): 90 | Plant response rating, Soybean (soybean; [2]): 100

CCNC(=O)c1cccc(NC(=O)c2cc(C3(C)CC3)nn2CC)c1 [Compound 306]
Plant response rating, Morningglory (morningglory; 62 g ai/ha, scale 0 to 100): 5 | Plant response rating, Morningglory (morningglory; [1]): 5 | Plant response rating, Morningglory (morningglory; 250 g ai/ha, scale 0-100): 10 | Plant response rating, Morningglory (morningglory; [2]): 20 | Plant response rating, Bermudagrass (bermudagrass; [3]): 40 | Plant response rating, Bermudagrass (bermudagrass; [1]): 85 | Plant response rating, Bermudagrass (bermudagrass; 250 g ai/ha, scale 0-100): 90 | Bermudagrass plant response rating (bermudagrass; [4]): 100 | Barnyardgrass plant response rating (barnyardgrass; [5]): 0 | Barnyardgrass plant response rating (barnyardgrass; [6]): 45 | Barnyardgrass plant response rating (barnyardgrass; [7]): 55 | Plant response rating, Barnyardgrass (barnyardgrass; [8]): 70 | Plant response rating, Goosegrass (goosegrass; 62 g ai/ha, scale 0 to 100): 50 | Plant response rating, Goosegrass (goosegrass; [1]): 70 | Plant response rating, Goosegrass (goosegrass; 250 g ai/ha, scale 0-100): 100 | Plant response rating, Goosegrass (goosegrass; [2]): 100 | Plant response rating, Cupgrass, Woolly (woolly cupgrass; 62 g ai/ha, scale 0 to 100): 5 | Plant response rating, Cupgrass, Woolly (woolly cupgrass; [1]): 15 | Plant response rating, Cupgrass, Woolly (woolly cupgrass; 250 g ai/ha, scale 0-100): 30 | Plant response rating, Cupgrass, Woolly (woolly cupgrass; [2]): 50 | Plant response rating, Cocklebur (cocklebur; 62 g ai/ha, scale 0 to 100): 0 | Plant response rating, Cocklebur (cocklebur; [1]): 0 | Plant response rating, Cocklebur (cocklebur; 250 g ai/ha, scale 0-100): 0 | Cocklebur plant response rating (cocklebur): 5 | Plant response rating, Nutsedge, Yellow (yellow nutsedge; 62 g ai/ha, scale 0 to 100): 0 | Plant response rating, Nutsedge, Yellow (yellow nutsedge; [1]): 0 | Plant response rating, Nutsedge, Yellow (yellow nutsedge; 250 g ai/ha, scale 0-100): 10 | Plant response rating, Nutsedge, Yellow (yellow nutsedge; [2]): 40 | Plant response rating, Kochia (kochia; 62 g ai/ha, scale 0 to 100): 0 | Plant response rating, Kochia (kochia; [1]): 80 | Plant response rating, Kochia (kochia; 250 g ai/ha, scale 0-100): 100 | Plant response rating, Kochia (kochia; [2]): 100 | Plant response rating, Velvetleaf (velvetleaf; 62 g ai/ha, scale 0 to 100): 5 | Plant response rating, Velvetleaf (velvetleaf; [2]): 10 | Plant response rating, Foxtail, Giant (giant foxtail; 62 g ai/ha, scale 0 to 100): 5 | Plant response rating, Foxtail, Giant (giant foxtail; [1]): 40 | Plant response rating, Foxtail, Giant (giant foxtail; 250 g ai/ha, scale 0-100): 90 | Plant response rating, Foxtail, Giant (giant foxtail; [2]): 100 | Plant response rating, Corn (corn; 62 g ai/ha, scale 0 to 100): 5 | Plant response rating, Corn (corn; [1]): 10 | Plant response rating, Corn (corn; 250 g ai/ha, scale 0-100): 20 | Plant response rating, Corn (corn; [2]): 50 | Plant response rating, Soybean (soybean; 62 g ai/ha, scale 0 to 100): 5 | Plant response rating, Soybean (soybean; 250 g ai/ha, scale 0-100): 15 | Plant response rating, Soybean (soybean; [2]): 40
